Source: article PMC9805938 (Journal of Pharmaceutical Analysis, 2020)

Molecular target: T1, transforming growth factor-β receptor type-I (TGF-β RI) (Homo sapiens, UniProt P36897)
T1 sequence (P36897 34-503): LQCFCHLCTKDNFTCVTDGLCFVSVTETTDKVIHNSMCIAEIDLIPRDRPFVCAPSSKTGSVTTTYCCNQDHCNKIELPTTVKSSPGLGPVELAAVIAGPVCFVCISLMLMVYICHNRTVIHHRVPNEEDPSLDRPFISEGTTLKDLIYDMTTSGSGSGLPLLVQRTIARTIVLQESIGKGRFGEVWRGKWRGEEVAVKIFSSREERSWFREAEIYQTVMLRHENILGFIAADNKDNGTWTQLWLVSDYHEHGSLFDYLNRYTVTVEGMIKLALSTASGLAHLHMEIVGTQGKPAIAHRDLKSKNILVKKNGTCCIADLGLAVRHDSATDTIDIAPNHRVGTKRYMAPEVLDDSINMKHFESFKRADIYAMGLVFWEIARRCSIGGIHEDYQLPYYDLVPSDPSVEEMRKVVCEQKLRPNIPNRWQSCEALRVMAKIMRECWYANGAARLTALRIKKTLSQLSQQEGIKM
Type: biochemical

SMILES: Oc1ccc(/C=C/c2cc(O)cc(O)c2)cc1 [compound 12, Resveratrol]
- IC50: 2210 ± 266 nM
